Source: patent US12606541B2, “PPARg modulators and methods of use” (Eisai R&D Management Co., Ltd., priority 2020, dated 2026)
Read-outs that look alike come from different tables or passages of the source.

Columns and labels:
[1] = molecular target: T1, His6-TEV-PPARγ-(234-505) (Homo sapiens, UniProt P37231); test: TR-FRET Assay to Measure Co-R Peptide Recruitment to PPARγ; assay type: biochemical; conditions: Co-R peptide (SMRT-ID2) recruitment; top final concentration 20 μM; read-out: TR-FRET i-Ag; AC50
T1 construct: The His6-TEV-PPARγ-(234-505) protein for assay was expressed and purified; TEV cleavage site (N); made in house
T1 sequence (P37231 234-505): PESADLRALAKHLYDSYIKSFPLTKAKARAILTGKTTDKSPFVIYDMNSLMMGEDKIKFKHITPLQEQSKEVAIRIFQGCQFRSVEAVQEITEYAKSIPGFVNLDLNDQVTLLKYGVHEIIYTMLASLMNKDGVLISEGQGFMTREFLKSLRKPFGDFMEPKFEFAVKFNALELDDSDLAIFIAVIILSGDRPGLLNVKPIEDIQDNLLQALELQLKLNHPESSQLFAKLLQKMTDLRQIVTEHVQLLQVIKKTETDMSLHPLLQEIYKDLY
Method in brief: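 Corepressor recruitment is measured by adding terbium-labeled anti-His antibody and FITC SMRT-ID2 peptide, at 5 and 200 nM final, after a 20-minute room-temperature protein–compound incubation. After one further hour, signal is converted to percent response between DMSO and 500 nM T0070907 wells.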

[2] = system: UM-UC-9 engineered cells; test: Cell proliferation / short-term viability assay, CellTiter-Glo 144 h; assay type: cell-based, human; conditions: read-out: CTGlo 144 h UMUC9.5, G150
Method in brief: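 Viability read by CellTiter-Glo 2.0 luminescence at day 7 versus DMSO-vehicle wells and a T0 plate measured on day 0. Cells: UM-UC-9 engineered assay-ready stocks, 500 cells/well in high-glucose DMEM with 10% FBS, 37° C, 5% CO2.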

SMILES	AC50 [1] [nM]	IC50 ([2]; Homo sapiens, UM-UC-9, 144 h) [nM]	IC50 [2] [nM]
Cc1cc(-c2cc(C(=O)N3CCC(C(=O)NCc4ccc5[nH]nc(F)c5c4)CC3)n[nH]2)c(F)cn1 [Example 269, N-[(3-fluoro-1H-indazol-5-yl)methyl]-1-[5-(5-fluoro-2-methylpyridin-4-yl)-1H-pyrazole-3-carbonyl]piperidine-4-carboxamide]	12	160	
CCc1cc(-c2cc(C(=O)N3CCC(C(=O)NCc4cccc(Cl)c4)CC3)n[nH]2)c(Cl)cn1 [Example 270, 1-[5-(5-chloro-2-ethylpyridin-4-yl)-1H-pyrazole-3-carbonyl]-N-[(3-chlorophenyl)methyl]piperidine-4-carboxamide]	23.4	306	
Cc1cc(-c2cc(C(=O)N3CCC(C(=O)NCc4ccc5[nH]ccc5c4)CC3)n[nH]2)c(F)cn1 [Example 271, 1-[5-(5-fluoro-2-methylpyridin-4-yl)-1H-pyrazole-3-carbonyl]-N-(1H-indol-5-ylmethyl)piperidine-4-carboxamide]	6.1	30.3	
COc1cc(-c2cc(C(=O)N3CCC(C(=O)NCc4ccc5[nH]c(C)c(C)c5c4)CC3)n[nH]2)c(F)cn1 [Example 272, N-[(2,3-dimethyl-1H-indol-5-yl)methyl]-1-[5-(5-fluoro-2-methoxypyridin-4-yl)-1H-pyrazole-3-carbonyl]piperidine-4-carboxamide]	9	111	
COc1cc(-c2cc(C(=O)N3CC[C@@H](C(=O)NCc4cccc(Cl)c4)C[C@H]3C)n[nH]2)c(Cl)cn1 [Example 273, (2R,4R)-1-(5-(5-chloro-2-methoxypyridin-4-yl)-1H-pyrazole-3-carbonyl)-N-(3-chlorobenzyl)-2-methylpiperidine-4-carboxamide]	26.7	213	
COc1cc(-c2cc(C(=O)N3CCC(C(=O)NC4CCC5(CCO5)CC4)CC3)n[nH]2)c(F)cn1 (centres unmarked) [Example 276, 1-(5-(5-fluoro-2-methoxypyridin-4-yl)-1H-pyrazole-3-carbonyl)-N-(1-oxaspiro[3.5]nonan-7-yl)piperidine-4-carboxamide]	813	> 4000	
COc1cc(-c2cc(C(=O)N3[C@@H]4CC[C@H]3C[C@H](C(=O)NCc3ccc5c(c3)c(F)nn5C)C4)n[nH]2)c(F)cn1 [Example 277, (1R,3s,5S)—N-((3-fluoro-1-methyl-1H-indazol-5-yl)methyl)-8-(5-(5-fluoro-2-methoxypyridin-4-yl)-1H-pyrazole-3-carbonyl)-8-azabicyclo[3.2.1]octane-3-carboxamide]	3.3	29	
COc1cc(-c2cc(C(=O)N3CCC(C(=O)NCc4ccc5c(c4)C(C)(C)CN5)CC3)n[nH]2)c(F)cn1 [Example 278, N-((3,3-dimethylindolin-5-yl)methyl)-1-(5-(5-fluoro-2-methoxypyridin-4-yl)-1H-pyrazole-3-carbonyl)piperidine-4-carboxamide]	75.1	478	
Cc1cc(-c2cc(C(=O)N3[C@@H]4CC[C@H]3C[C@H](C(=O)N[C@H]3CC[C@@](O)(C(F)(F)F)CC3)C4)n[nH]2)ncn1 [Example 279, (1R,3s,5S)—N-((1r,4R)-4-hydroxy-4-(trifluoromethyl)cyclohexyl)-8-(5-(6-methylpyrimidin-4-yl)-1H-pyrazole-3-carbonyl)-8-azabicyclo[3.2.1]octane-3-carboxamide]	24.6	290	
COc1cc(-c2cc(C(=O)N3C4COCC3CC(C(=O)N[C@H]3CC[C@@](O)(C(F)(F)F)CC3)C4)n[nH]2)c(F)cn1 (some centres unmarked) [Example 282, 9-(5-(5-fluoro-2-methoxypyridin-4-yl)-1H-pyrazole-3-carbonyl)-N-((1r,4r)-4-hydroxy-4-(trifluoromethyl)cyclohexyl)-3-oxa-9-azabicyclo[3.3.1]nonane-7-carboxamide]	59	293	
Cc1cc(-c2cc(C(=O)N3[C@@H]4CC[C@H]3C[C@H](C(=O)N[C@H]3CC[C@@](O)(C(F)(F)F)CC3)C4)n[nH]2)c(F)cn1 [Example 283, (1R,3R,5S)-8-[5-(5-fluoro-2-methylpyridin-4-yl)-1H-pyrazole-3-carbonyl]-N-[(1r,4r)-4-hydroxy-4-(trifluoromethyl)cyclohexyl]-8-azabicyclo[3.2.1]octane-3-carboxamide]	7.5	70.8	
Cc1cc(-c2cc(C(=O)N3[C@@H]4CC[C@H]3C[C@H](C(=O)NCc3ccc5[nH]nc(F)c5c3)C4)n[nH]2)c(F)cn1 [Example 284, (1R,3s,5S)—N-((3-fluoro-1H-indazol-5-yl)methyl)-8-(5-(5-fluoro-2-methylpyridin-4-yl)-1H-pyrazole-3-carbonyl)-8-azabicyclo[3.2.1]octane-3-carboxamide]	2.3	12.1	
COc1cc(-c2cc(C(=O)N3[C@@H]4CC[C@H]3C[C@H](C(=O)NCc3ccc5[nH]c(C)c(C)c5c3)C4)n[nH]2)c(F)cn1 [Example 285, (1R,3R,5S)—N-[(2,3-dimethyl-1H-indol-5-yl)methyl]-8-[5-(5-fluoro-2-methoxypyridin-4-yl)-1H-pyrazole-3-carbonyl]-8-azabicyclo[3.2.1]octane-3-carboxamide]	7.9	16.3	
COc1cc(-c2cc(C(=O)N3[C@@H]4CC[C@H]3C[C@H](C(=O)NC3CC[Si](C)(C)CC3)C4)n[nH]2)c(F)cn1 [Example 291, (1R,3s,5S)—N-(1,1-dimethylsilinan-4-yl)-8-(5-(5-fluoro-2-methoxypyridin-4-yl)-1H-pyrazole-3-carbonyl)-8-azabicyclo[3.2.1]octane-3-carboxamide]	69.6	150	
COc1cc(-c2cc(C(=O)N3CCC(C(=O)N[C@@H]4CCN(c5ccccc5F)C4)CC34CC4)n[nH]2)c(F)cn1 (stereo partly drawn) [Example 296, 4-[5-(5-fluoro-2-methoxypyridin-4-yl)-1H-pyrazole-3-carbonyl]-N—[(R)-1-(2-fluorophenyl)pyrrolidin-3-yl]-4-azaspiro[2.5]octane-7-carboxamide]	19.8	4.1	
Cc1cc(-c2cc(C(=O)N3CC[C@H](C(=O)NC4CCC5(CCO5)CC4)CC34CC4)n[nH]2)ncn1 (stereo partly drawn) [Example 300-B, (S)-4-(5-(6-methylpyrimidin-4-yl)-1H-pyrazole-3-carbonyl)-N-(1-oxaspiro[3.5]nonan-7-yl)-4-azaspiro[2.5]octane-7-carboxamide]	995	1510	
COc1cc(-c2nc(C(=O)N3[C@@H]4CC[C@H]3CC(C(=O)NC3CCC(O)(C(F)(F)F)CC3)C4)n[nH]2)c(F)cn1 (stereo partly drawn) [Example 305, (1R,3S,5S)-8-[5-(5-fluoro-2-methoxypyridin-4-yl)-1H-1,2,4-triazole-3-carbonyl]-N-[(1r,4r)-4-hydroxy-4-(trifluoromethyl)cyclohexyl]-8-azabicyclo[3.2.1]octane-3-carboxamide]	217		2270
Cc1cc(-c2c[nH]c(C(=O)N3CCC(C(=O)N[C@H]4CC[C@@](O)(C(F)(F)F)CC4)CC34CC4)n2)c(O)cn1 (some centres unmarked) [Example 310, 4-(4-(5-hydroxy-2-methylpyridin-4-yl)-1H-imidazole-2-carbonyl)-N-((1r,4r)-4-hydroxy-4-(trifluoromethyl)cyclohexyl)-4-azaspiro[2.5]octane-7-carboxamide]	14	99	
Cc1nccc(-c2cc(C(=O)N3[C@@H]4CC[C@H]3C[C@H](C(=O)N[C@H]3CC[C@@](O)(C(F)(F)F)CC3)C4)n[nH]2)c1C [Example 314, (1R,3s,5S)-8-(5-(2,3-dimethylpyridin-4-yl)-1H-pyrazole-3-carbonyl)-N-((1r,4R)-4-hydroxy-4-(trifluoromethyl)cyclohexyl)-8-azabicyclo[3.2.1]octane-3-carboxamide]	347	> 10000	
Cc1cc(-c2cc(C(=O)N3[C@@H]4CC[C@H]3C[C@H](C(=O)N[C@H]3CC[C@@](O)(C(F)(F)F)CC3)C4)n[nH]2)c2cn[nH]c2n1 [Example 315, (1R,3s,5S)—N-((1r,4R)-4-hydroxy-4-(trifluoromethyl)cyclohexyl)-8-(5-(6-methyl-1H-pyrazolo[3,4-b]pyridin-4-yl)-1H-pyrazole-3-carbonyl)-8-azabicyclo[3.2.1]octane-3-carboxamide]	863	> 10000	
CCc1cc(-c2cc(C(=O)N3[C@@H]4CC[C@H]3C[C@H](C(=O)N[C@H]3CC[C@@](O)(C(F)(F)F)CC3)C4)n[nH]2)ccn1 [Example 316, (1R,3s,5S)-8-(5-(2-ethylpyridin-4-yl)-1H-pyrazole-3-carbonyl)-N-((1r,4R)-4-hydroxy-4-(trifluoromethyl)cyclohexyl)-8-azabicyclo[3.2.1]octane-3-carboxamide]	67.9	3390	
O=C(N[C@H]1CC[C@@](O)(C(F)(F)F)CC1)[C@@H]1C[C@H]2CC[C@@H](C1)N2C(=O)c1cc(-c2ccnc(CO)c2)[nH]n1 [Example 317, (1R,3s,5S)—N-((1r,4R)-4-hydroxy-4-(trifluoromethyl)cyclohexyl)-8-(5-(2-(hydroxymethyl)pyridin-4-yl)-1H-pyrazole-3-carbonyl)-8-azabicyclo[3.2]octane-3-carboxamide]	344	> 10000	
